In the supplement of paper PMC11208160:

assay: recombinant UMI read abundance after kanamycin selection (control-corrected) (log10(CPM+1)); higher = more efficient recombination; extreme values may be limits of the assay; sequences stand for … in AGTGCAGAGAAAATCGGCCAGTTTTCTCTGCCTGCAGTCCGCATGCCGTGGGACCCCTTGGGTTCTAACCTGTTGCCTAGATTTATGCAGCGGACTGCCTTTCTCCCAAAGTGATAAACCGG…AGGTTGGTTTCACT; site = the 11-nt donor
Procedure, shortened: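 The measure is log10(CPM+1) for recombinant UMIs. These were PCR-amplified across the donor–target junction and sequenced after Escherichia coli carrying a donor and donor-binding-loop pair library and a target plasmid with T7-inducible IS621 bridge recombinase was plated on IPTG (0.07 mM) plus kanamycin or unselected. CPM were averaged over two replicates and scaled by control-derived factors.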
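Further: IS621 bridge recombinase in Escherichia coli cells against a fixed T5 target plasmid.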

Row | Sequence | recombinant UMI read abundance (log10)
1 | GGACAGACATGGACCGGTTTTCCCGGTAATCCGTATTTGCC (site GGACAGACTGG) | 2.42
2 | GGACAGACATGGACCGGTTTTCCCGGTAATCCGTATTTGCC (site GGAGAGACTGG) | 0
3 | GGACAGACATGGACCGGTTTTCCCGGTAATCCGTATTTGCC (site GGATAGACTGG) | 1.84
4 | GGACAGTCATGGACCGGTTTTCCCGGTAATCCGTATTTGTC (site GGACAGTCTGA) | 3.04
5 | GGACCAACATGGACCGGTTTTCCCGGTAATCCGTATTTGTA (site GGACCAACTTA) | 1.09
6 | GGACCAACATGGACCGGTTTTCCCGGTAATCCGTATTTGTA (site GGCCCAACTTA) | 0.00566
7 | GGACCAACATGGACCGGTTTTCCCGGTAATCCGTATTTGTA (site GGGCCAACTTA) | 0.0083
8 | GGACCAACATGGACCGGTTTTCCCGGTAATCCGTATTTGTA (site GGTCCAACTTA) | 0.0428
9 | GGACGTACATGGACCGGTTTTCCCGGTAATCCGTATTTGTG (site GGACGTACTCA) | 1.09
10 | GGACTGGCATGGACCGGTTTTCCCGGTAATCCGTATTTGGT (site GGAATGGCTAC) | 0.00409
11 | GGACTGGCATGGACCGGTTTTCCCGGTAATCCGTATTTGGT (site GGACTGGCTAC) | 0.371
12 | GGACTGGCATGGACCGGTTTTCCCGGTAATCCGTATTTGGT (site GGAGTGGCTAC) | 0.0324
13 | GGACTGGCATGGACCGGTTTTCCCGGTAATCCGTATTTGGT (site GGATTGGCTAC) | 0.0234
14 | GGACTTCCATGGACCGGTTTTCCCGGTAATCCGTATTTGGT (site GGACTTCCTAC) | 1.16
15 | GGAGAGACATGGACCGGTTTTCCCGGTAATCCGTATTTGCC (site GGAAAGACTGG) | 0
16 | GGAGAGACATGGACCGGTTTTCCCGGTAATCCGTATTTGCC (site GGACAGACTGG) | 0
17 | GGAGAGACATGGACCGGTTTTCCCGGTAATCCGTATTTGCC (site GGAGAGACTGG) | 0
18 | GGAGAGACATGGACCGGTTTTCCCGGTAATCCGTATTTGCC (site GGATAGACTGG) | 0
19 | GGAGATTCATGGACCGGTTTTCCCGGTAATCCGTATTTGAC (site GGAGATTCTGT) | 0

Row | Sequence | recombinant UMI read abundance (log10)
20 | GGAGCACCATGGACCGGTTTTCCCGGTAATCCGTATTTGCA (site GGAGCACCTTG) | 0
21 | GGAGCACCATGGACCGGTTTTCCCGGTAATCCGTATTTGCA (site GGCGCACCTTG) | 0
22 | GGAGCACCATGGACCGGTTTTCCCGGTAATCCGTATTTGCA (site GGGGCACCTTG) | 0
23 | GGAGCACCATGGACCGGTTTTCCCGGTAATCCGTATTTGCA (site GGTGCACCTTG) | 0.00599
24 | GGAGCCCCATGGACCGGTTTTCCCGGTAATCCGTATTTGGG (site GGAGCCCCTCC) | 0.00903
25 | GGAGGCCCATGGACCGGTTTTCCCGGTAATCCGTATTTGCC (site GGAGGCCCTGG) | 0
26 | GGAGGTACATGGACCGGTTTTCCCGGTAATCCGTATTTGAC (site GAAGGTACTGT) | 0.759
27 | GGAGGTACATGGACCGGTTTTCCCGGTAATCCGTATTTGAC (site GCAGGTACTGT) | 0.553
28 | GGAGGTACATGGACCGGTTTTCCCGGTAATCCGTATTTGAC (site GGAGGTACTGT) | 1.39
29 | GGAGGTACATGGACCGGTTTTCCCGGTAATCCGTATTTGAC (site GTAGGTACTGT) | 0
30 | GGAGTAGCATGGACCGGTTTTCCCGGTAATCCGTATTTGGT (site GGAGTAGCTAC) | 1.18
31 | GGAGTAGCATGGACCGGTTTTCCCGGTAATCCGTATTTGGT (site GGAGTCGCTAC) | 0.0165
32 | GGAGTAGCATGGACCGGTTTTCCCGGTAATCCGTATTTGGT (site GGAGTGGCTAC) | 0.49
33 | GGAGTAGCATGGACCGGTTTTCCCGGTAATCCGTATTTGGT (site GGAGTTGCTAC) | 0
34 | GGAGTATCATGGACCGGTTTTCCCGGTAATCCGTATTTGAC (site CTAGTATCTGT) | 0
35 | GGAGTATCATGGACCGGTTTTCCCGGTAATCCGTATTTGAC (site GGAGTATCTGT) | 2.66
36 | GGAGTCGCATGGACCGGTTTTCCCGGTAATCCGTATTTGCG (site GAAGTCGCTCG) | 0.00287
37 | GGAGTCGCATGGACCGGTTTTCCCGGTAATCCGTATTTGCG (site GCAGTCGCTCG) | 0.021
38 | GGAGTCGCATGGACCGGTTTTCCCGGTAATCCGTATTTGCG (site GGAGTCGCTCG) | 1.28

Row | Sequence | recombinant UMI read abundance (log10)
39 | GGAGTCGCATGGACCGGTTTTCCCGGTAATCCGTATTTGCG (site GTAGTCGCTCG) | 0.0226
40 | GGAGTCTCATGGACCGGTTTTCCCGGTAATCCGTATTTGTC (site GGAGTCTCTGA) | 2.36
41 | GGAGTGCCATGGACCGGTTTTCCCGGTAATCCGTATTTGGA (site GGAGTGCCTTC) | 0.0188
42 | GGAGTGTCATGGACCGGTTTTCCCGGTAATCCGTATTTGGT (site GGAGTGACTAC) | 0.192
43 | GGAGTGTCATGGACCGGTTTTCCCGGTAATCCGTATTTGGT (site GGAGTGCCTAC) | 0.00939
44 | GGAGTGTCATGGACCGGTTTTCCCGGTAATCCGTATTTGGT (site GGAGTGGCTAC) | 0.0122
45 | GGAGTGTCATGGACCGGTTTTCCCGGTAATCCGTATTTGGT (site GGAGTGTCTAC) | 1.71
46 | GGATAATCATGGACCGGTTTTCCCGGTAATCCGTATTTGAA (site GGATAATCTTT) | 2.84
47 | GGATAGACATGGACCGGTTTTCCCGGTAATCCGTATTTGAC (site GGATAGACTGA) | 0
48 | GGATAGACATGGACCGGTTTTCCCGGTAATCCGTATTTGAC (site GGATAGACTGC) | 0.822
49 | GGATAGACATGGACCGGTTTTCCCGGTAATCCGTATTTGAC (site GGATAGACTGG) | 1.9
50 | GGATAGACATGGACCGGTTTTCCCGGTAATCCGTATTTGAC (site GGATAGACTGT) | 3.21
51 | GGATAGACATGGACCGGTTTTCCCGGTAATCCGTATTTGCC (site AGATAGACTGG) | 2.1
52 | GGATAGACATGGACCGGTTTTCCCGGTAATCCGTATTTGCC (site CGATAGACTGG) | 0.635
53 | GGATAGACATGGACCGGTTTTCCCGGTAATCCGTATTTGCC (site GAATAGACTGG) | 1.5
54 | GGATAGACATGGACCGGTTTTCCCGGTAATCCGTATTTGCC (site GCATAGACTGG) | 2.11
55 | GGATAGACATGGACCGGTTTTCCCGGTAATCCGTATTTGCC (site GGAAAGACTGG) | 0
56 | GGATAGACATGGACCGGTTTTCCCGGTAATCCGTATTTGCC (site GGACAGACTGG) | 2.55
57 | GGATAGACATGGACCGGTTTTCCCGGTAATCCGTATTTGCC (site GGAGAGACTGG) | 0
